Measured values as given in US20060281110A1, “Methods to identify antimicrobial compounds that interrupt ribosome biogenesis” (MICHIGAN STATE UNIVERSITY, priority 2005, published 2006).

Key:
45S intermediate = experiment: In vitro association of YlqF-His6 with ribosomal particles (sucrose gradient, Western blot); type: binding, B. subtilis; details: incubated 10 minutes at 37° C.; 10-25% sucrose gradient; FIG. 16
Method: (§1) The data was collected from 12% SDS-PAGE electrophoresis and blotted to a nylon membrane using standard Western Blot analysis. Incubations using rabbit polyclonal YlqF antibody was followed by horseradish peroxidase-conjugated goat anti-rabbit antibody and Western Lightning® (PerkinElmer) chemiluminescent detection. Purified YlqF-His6 was added as a comparative marker.
(§2) A B. subtilis strain was constructed that expresses a YlqF-His6 fusion protein as the only functional YlqF copy in the cell. […] The YlqF-His6 fusion protein was purified and tested for association with purified 45S intermediates and mature 50S subunits. YlqF-His6 and either the 45S intermediate or 50S subunits were mixed and incubated for 10 minutes at 37° C. The mixtures were then fractionated on 10-25% sucrose gradients and individual fractions corresponding to the 45S and 50S peaks were collected. […] Although it is not necessary to understand the mechanism of an invention, it is believed that YlqF functions as a factor involved in the biogenesis of the 50S subunit.

50S subunit = details: incubated 10 minutes at 37° C.; 10-25% sucrose gradient; FIG. 16
Method: as §1, §2

YlqF-His6: purified His6 fusion to the C-terminus of B. subtilis GTPase YlqF
binding to 45S intermediate (45S intermediate): able to bind the 45S intermediate | binding to mature 50S subunit (50S subunit): not the 50S subunit
